Results reported in patent publication US20220169654A1, “New Organic Compounds” (Servier Pharmaceuticals LLC, priority 2020, published 2022).

Tests used:
HCT116 MTAP−/− = test: Inhibition of cellular proliferation, 4 days, Cell Titer Glo, HCT116 MTAP−/−; type: cell-based; conditions: Homo sapiens, HCT-116, 96 h, IC50 bin with Max Inh., read-out: 4 Day Relative Growth Inhibition (MTAP −/−)
Method: (§1) Test compound impact on cancer cell growth was assessed by treating cancer cells with compound for 4 days and then measuring proliferation using an ATP-based cell proliferation readout (Cell Titer Glo, Promega Corporation).
(§2) In a typical assay an isogenic pair of HCT116 human colon carcinoma cell lines which vary only in MTAP deletion status (HCT116 MTAP+/+ and HCT116 MTAP−/−) were plated in 96-well dishes at appropriate cell density. Following 24 hours, cells were then treated with the candidate MAT2A inhibitor. Prior to addition to cells, the compound was first serially diluted in 100% DMSO, typically as a 3-fold serial dilution starting at 500× top dose with 10 dose points including DMSO only control. Compound was then transferred to a working stock plate in cell culture media by adding 5 μL of compound in DMSO to 495 μL of cell culture media. This working stock was then added to cells via a further 5-fold dilution, by adding 25 μL of working stock to 100 μL of cells in culture media. Following compound addition, cells were incubated at 37° C./5% CO2 for 4 days.
(§3) To measure inhibition of cellular proliferation, cells were allowed to equilibrate to room temperature for 30 minutes, and were then treated with 125 μL of Cell Titer Glo reagent. The plate was then covered with aluminum foil and shaken for 15 minutes to ensure complete mixing and full cell lysis. Luminescent signal was then measured using a plate-based luminometer Veritas version 1.9.2 using ATP standard curve to confirm assay reproducibility from run to run. This luminescence measure was converted to a proliferation index by subtracting from each data point the ATP luminescence signal measured from a bank (no cells) well and dividing by the ATP luminescence signal measured in 0.2% DMSO control well adjusted for signal in blank well. Compound activity was then represented as a percentage change in proliferation relative to a within-plate DMSO control against log 10 of compound concentration in molar (M) units.
(§4) Specific compounds disclosed herein were tested in the foregoing assay and they were determined to inhibit cellular proliferation with an IC50. See, Table 1 below.

HCT116 MTAP+/+ = test: Inhibition of cellular proliferation, 4 days, Cell Titer Glo, HCT116 MTAP+/+; type: cell-based; conditions: Homo sapiens, HCT-116, 96 h, IC50 bin with Max Inh., read-out: 4 Day Relative Growth Inhibition (MTAP +/+)
Method: as §1, §2, §3, §4

MAT2A homodimer = target: T1, MAT2A homodimer (Homo sapiens, UniProt P31153); test: MAT2A inhibition (biochemical, liberated phosphate, PiColorLock Gold); conditions: recombinant MAT2A homodimer; IC50 bin with Max Inh.; read-out: Enzyme Inhibition Bin
T1 construct: inferred from Ni sepharose purification with imidazole elution; made in house; host or cells: Sf9 insect cells, baculovirus (Bac to Bac, pFASTBAC1)
Method: Mat2A protein was expressed by recombinant baculovirus in SF9 infected cells using the Bac to Bac system cloned into the pFASTBAC1 vector (Invitrogen, Carlsbad, Calif.). Recombinant MAT2A was isolated from the cell lysate of 150 g of infected cells using HP Ni sepharose column chromatography. Recombinant MAT2A homodimer was eluted with 250 and 500 mM imidazole, and fractions containing MAT2A were identified by sodium dodecyl sulfate polyacrylamide gel electrophoresis and pooled.
For determination of the inhibitory potency of compounds against the MAT2A homodimer, protein was diluted to 4 μg/mL in assay buffer (50 mM Tris, pH 8.0, 50 mM KCl, 15 mM MgCl2, 0.3 mM EDTA, 0.005% [w/v] bovine serum albumin [BSA]). Test compound was prepared in 100% dimethyl sulfoxide (DMSO) at 50× the desired final concentration. A 1 μL volume of compound dilution was added to 40 μL of enzyme dilution and the mixture was allowed to equilibrate for 60 minutes at 25° C. The enzymatic assay was initiated by the addition of 10 μL of substrate mix (500 μM ATP, pH 7.0, 400 μM L-methionine in 1× assay buffer), and the mixture was incubated for a further 60 minutes at 25° C. The reaction was halted and the liberated phosphate released by the enzyme in stoichiometric amounts by the production of S-adenosyl methionine (SAM) was measured using the PiColorLock Gold kit (Innova Biosciences, UK). Absolute product amounts were determined by comparison to a standard curve of potassium phosphate buffer, pH 8.0. The compounds were also tested in a secondary assay utilizing 1 μg/mL MAT2A and incubated for 5 hours at 25° C. before halting and processing as above.
Specific compounds disclosed herein were tested in the foregoing assay and they were determined to inhibit MAT2A with an IC50. See, Table 1 below.

[1] = tested on: SAM in HCT116 human colon carcinoma cell line with MTAP gene deleted (MTAP −/−); test: Cellular assay of target engagement (SAM), LC-MS/MS, 72 hrs; type: cell-based; conditions: HCT-116, IC50 bin with Max Inh., read-out: Cell 72 h SAM Inhibition (MTAP −/−)
Method: Measurement of MAT2A activity in cells was made by direct quantitation of the abundance of the product of its enzymatic activity, SAM. Cancer cells were treated with candidate MAT2A inhibitors for a suitable incubation period, and the cells were then lysed using a reagent which quenched any further enzyme activity. Soluble metabolites including SAM were collected and SAM itself was directly measured from the lysate using quantitative LC-MS/MS.
A typical assay was performed using an HCT116 human colon carcinoma cell line which was genetically engineered to delete the MTAP gene (commercially available from Horizon Discovery). This cell line was utilized because it was determined that loss of the MTAP gene predicts sensitivity to MAT2A inhibitors. Cells were plated in 96-well dishes at appropriate cell density. Following 24 hours, cells were then treated with the candidate MAT2A inhibitor. Prior to addition to cells, the compound was first serially diluted in 100% DMSO, typically as a 3-fold serial dilution starting at 500× top dose with 10 dose points including DMSO only control. Compound was then transferred to a working stock plate in cell culture media by adding 5 μL of compound in DMSO to 495 μL of cell culture media. This working stock was then added to cells via a further 5-fold dilution, by adding 25 μL of working stock to 100 μL of cells in culture media. Following compound addition, cells were incubated at 37° C./5% CO2 for 72 hrs.
To quantitate SAM levels following compound treatment, cells were gently washed once in ammonium carbonate buffer (75 mM at pH 7.4), placed on dry ice, and lysed with metabolite extraction buffer (80% cold methanol and 20% water (v/v) with acetic acid at 1M final concentration with 200 ng/mL deuterated d3-SAM as internal control). Following centrifugation at 4° C. at 3,200 rpm for 30 minutes, the supernatant was collected and stored at −80° C. until analysis by Liquid Chromatography with tandem Mass Spectrometry (LC-MS/MS). LC-MS/MS analysis was performed using an API6500 Mass Spectrometer (Sciex, Framingham, Mass., USA) operating in positive ion spray mode and equipped with a Waters UPLC Acquity (Waters, Milford, Mass., USA) BEH Amide column. Multiple Reaction Monitoring data was acquired for SAM and the d3-SAM standard, using a mass transition pair at m/z 399.2→250.1 and 402.2→250.1, respectively. In a typical LC-MS/MS analysis, the initial flow rate was 0.5 ml/min of 25% mobile phase A (acetonitrile and water at 5:95 (v/v) with 1% formic acid and 10 mM ammonium acetate) and 75% mobile phase B (acetonitrile and water at 95:5 (v/v) with 1% formic acid and 10 mM ammonium acetate), 0.2-0.5 minutes with 75%-35% mobile phase B, 25%-65% mobile phase A, at 0.5 min 65% mobile phase A and 35% mobile phase B, 1.0-1.1 minutes with 35%-75% mobile phase B, 65%-25% mobile phase A, at 1.1 min 25% mobile phase A and 75% mobile phase B with a total run time of 1.5 minutes.
Specific compounds disclosed herein were tested in the foregoing assay and they were determined to inhibit SAM with an IC50. See, Table 1 below.

T1 sequence (P31153 whole entry): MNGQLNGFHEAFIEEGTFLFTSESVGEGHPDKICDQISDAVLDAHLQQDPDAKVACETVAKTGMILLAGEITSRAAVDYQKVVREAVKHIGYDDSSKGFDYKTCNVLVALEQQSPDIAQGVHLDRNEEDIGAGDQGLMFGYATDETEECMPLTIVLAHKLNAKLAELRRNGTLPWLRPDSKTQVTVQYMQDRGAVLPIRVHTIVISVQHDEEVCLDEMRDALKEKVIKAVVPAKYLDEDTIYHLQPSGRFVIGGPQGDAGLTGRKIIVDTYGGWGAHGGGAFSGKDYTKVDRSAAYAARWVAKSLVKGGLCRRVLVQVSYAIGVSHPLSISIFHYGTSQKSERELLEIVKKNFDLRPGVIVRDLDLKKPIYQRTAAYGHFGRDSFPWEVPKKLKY

IC50 (HCT116 MTAP−/−) [µM]	IC50 (HCT116 MTAP+/+) [µM]	IC50 (MAT2A homodimer) [µM]	IC50 [1] [µM]	Compound
< 0.1	> 1	< 0.1	< 0.1	Cn1cc2cc(-n3nc4ccn(CC5CC5)c4c(-c4ccc(OC(F)F)nc4)c3=O)ccc2n1 [Example 113, 5-(cyclopropylmethyl)-4-(6-(difluoromethoxy)pyridin-3-yl)-2-(2-methyl-2H-indazol-5-yl)-2,5-dihydro-3H-pyrrolo[3,2-c]pyridazin-3-one]
< 0.1	> 1	< 0.1	< 0.1	Cn1cc2cc(-n3nc4c(C#N)cn(CC5CC5)c4c(-c4ccc(OC(F)F)nc4)c3=O)ccc2n1 [Example 114, 5-(cyclopropylmethyl)-4-(6-(difluoromethoxy)pyridin-3-yl)-2-(2-methyl-2H-indazol-5-yl)-3-oxo-3,5-dihydro-2H-pyrrolo[3,2-c]pyridazine-7-carbonitrile]
< 0.1	> 1	< 0.1	< 0.1	CC(C)Cn1ccc2nn(-c3ccc4nn(C)cc4c3)c(=O)c(-c3ccc(OC(F)F)cc3)c21 [Example 115, 4-(4-(difluoromethoxy)phenyl)-5-isobutyl-2-(2-methyl-2H-indazol-5-yl)-2,5-dihydro-3H-pyrrolo[3,2-c]pyridazin-3-one]
0.1 to 1	> 1	< 0.1	< 0.1	CC(C)Cn1cc(C#N)c2nn(-c3ccc4nn(C)cc4c3)c(=O)c(-c3ccc(OC(F)F)cc3)c21 [Example 116, 4-(4-(difluoromethoxy)phenyl)-5-isobutyl-2-(2-methyl-2H-indazol-5-yl)-3-oxo-3,5-dihydro-2H-pyrrolo[3,2-c]pyridazine-7-carbonitrile]
< 0.1	> 1	< 0.1	< 0.1	Cn1cc2cc(-n3nc4c(I)cn(CC5CC5)c4c(-c4ccc(C5CC5)nc4)c3=O)ccc2n1 [Example 117, 5-(cyclopropylmethyl)-4-(6-cyclopropylpyridin-3-yl)-7-iodo-2-(2-methyl-2H-indazol-5-yl)-2,5-dihydro-3H-pyrrolo[3,2-c]pyridazin-3-one]
< 0.1	> 1	< 0.1	< 0.1	Cn1cc2cc(-n3nc4ccn(CC5CC5)c4c(-c4ccc(C(F)(F)F)nc4)c3=O)ccc2n1 [Example 118, 5-(cyclopropylmethyl)-2-(2-methyl-2H-indazol-5-yl)-4-(6-(trifluoromethyl)pyridin-3-yl)-2,5-dihydro-3H-pyrrolo[3,2-c]pyridazin-3-one]
> 1	> 1	< 0.1	> 1	Cn1cc2cc(-n3nc4c(C#N)cn(CC5CC5)c4c(-c4ccc(C(F)(F)F)nc4)c3=O)ccc2n1 [Example 119, 5-(cyclopropylmethyl)-2-(2-methyl-2H-indazol-5-yl)-3-oxo-4-(6-(trifluoromethyl)pyridin-3-yl)-3,5-dihydro-2H-pyrrolo[3,2-c]pyridazine-7-carbonitrile]
> 1	> 1	< 0.1	0.1 to 1	Cn1cc2cc(-n3nc4c(C#N)cn(CC5CC5)c4c(-c4ccc(C5(C#N)CC5)nc4)c3=O)ccc2n1 [Example 120, 4-(6-(1-cyanocyclopropyl)pyridin-3-yl)-5-(cyclopropylmethyl)-2-(2-methyl-2H-indazol-5-yl)-3-oxo-3,5-dihydro-2H-pyrrolo[3,2-c]pyridazine-7-carbonitrile]
< 0.1	> 1	< 0.1	< 0.1	[2H]C([2H])([2H])Oc1ccc(-n2nc3ccn(CC4CC4)c3c(-c3ccc(C4CC4)nc3)c2=O)cc1 [Example 122, 5-(cyclopropylmethyl)-4-(6-cyclopropylpyridin-3-yl)-2-(4-(methoxy-d3)phenyl)-2,5-dihydro-3H-pyrrolo[3,2-c]pyridazin-3-one]
< 0.1	0.1 to 1	< 0.1	< 0.1	Cn1cc2cc(-n3nc4ccn(CC5CC5)c4c(-c4ccc(C(F)F)nc4)c3=O)ccc2n1 [Example 123, 5-(cyclopropylmethyl)-4-(6-(difluoromethyl)pyridin-3-yl)-2-(2-methyl-2H-indazol-5-yl)-2,5-dihydro-3H-pyrrolo[3,2-c]pyridazin-3-one]
0.1 to 1	> 1	< 0.1	< 0.1	[2H]C([2H])([2H])Oc1ccc(-n2nc3c(C#N)cn(CC4CC4)c3c(-c3ccc(C4CC4)nc3)c2=O)cc1 [Example 124, 5-(cyclopropylmethyl)-4-(6-cyclopropylpyridin-3-yl)-2-(4-(methoxy-d3)phenyl)-3-oxo-3,5-dihydro-2H-pyrrolo[3,2-c]pyridazine-7-carbonitrile]
0.1 to 1	> 1	< 0.1	< 0.1	CCCn1cc(C#N)c2nn(-c3ccc4nn(C)cc4c3)c(=O)c(-c3ccc(C4CC4)nc3)c21 [Example 127, 4-(6-cyclopropylpyridin-3-yl)-2-(2-methyl-2H-indazol-5-yl)-3-oxo-5-propyl-3,5-dihydro-2H-pyrrolo[3,2-c]pyridazine-7-carbonitrile]
